From article PMC11447181 (Nature Communications, 2024)
Several values for one entry are separate records, joined by “and”; a condition that tells them apart may be missing. Equal entries are not always repeated. Entries after “also recorded” stand apart in the source; their conditions may differ.

Legend:
SLC19A3 = conditions: cited from earlier work
[1] = molecular target: T1, hSLC19A3-wt overexpressed in Expi293F cells (Homo sapiens, UniProt Q9BZV2); experiment: Mass spectrometry-based cellular thiamine-d3 uptake assay; type: cell-based; conditions: 200 μM compound, 2 μM thiamine-d3, 5 min, n = 3
T1 construct: full-length, wildtype human SLC19A3; expressed in transfected cells; host or cells: Expi293F
T1 sequence (Q9BZV2 with tags, fused parts or gaps): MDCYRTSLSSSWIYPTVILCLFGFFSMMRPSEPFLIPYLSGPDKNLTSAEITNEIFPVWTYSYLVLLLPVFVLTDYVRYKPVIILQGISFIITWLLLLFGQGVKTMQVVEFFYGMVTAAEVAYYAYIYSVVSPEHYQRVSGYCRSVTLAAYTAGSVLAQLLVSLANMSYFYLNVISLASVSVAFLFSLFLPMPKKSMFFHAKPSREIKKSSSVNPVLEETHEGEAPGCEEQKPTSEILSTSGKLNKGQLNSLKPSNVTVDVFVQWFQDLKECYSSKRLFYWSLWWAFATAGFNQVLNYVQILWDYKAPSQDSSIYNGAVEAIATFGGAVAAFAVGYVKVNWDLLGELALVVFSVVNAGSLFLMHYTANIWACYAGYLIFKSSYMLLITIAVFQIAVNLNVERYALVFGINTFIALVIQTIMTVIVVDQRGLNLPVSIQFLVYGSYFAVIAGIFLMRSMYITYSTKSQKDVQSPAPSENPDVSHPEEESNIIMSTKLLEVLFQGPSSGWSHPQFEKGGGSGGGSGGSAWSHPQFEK
Protocol: The cells were then pelleted for 5 min at 250×g and resuspended in 1×PBS (pH 7.4) at a cell density of 2 million cells per mL. The cell suspension was subsequently transferred to a 96-deep well plate in three technical replicates per condition (n = 3, 1 mL per well, corresponding to 2 million cells per condition). 200 μM of the selected compounds were added to the respective wells and the cells were incubated for 1 min on a shaking platform. […] Afterwards, the cells were pelleted for 5 min at 500×g and washed 3× with 1 mL 1×PBS (pH7.4), before transferring them to a fresh 96-deep well plate. The cell pellets were stored at –70 °C. For the LC-MS/MS analysis, the samples were extracted by adding 500 µL of a mixture of H2O:MeOH:ACN (1:1:1, v/v), containing 5% (v/v) formic acid. After vortexing and ultrasonication in a water bath for 5 min at 4 °C, samples were incubated for 20 min at –20 °C. […] The supernatants were then transferred for LC-MS analysis, which was initiated within one hour after sample preparation. LC-MS/MS analysis was performed on a Vanquish UHPLC system coupled to an Orbitrap Exploris 240 high-resolution mass spectrometer (Thermo Fisher Scientific, MA, USA) in positive ESI (electrospray ionization) mode. Chromatographic separation was carried out on an Atlantis Premier BEH Z-HILIC column (Waters, MA, USA; 2.1 mm × 100 mm, 1.7 µm) at a flow rate of 0.25 mL/min. The mobile phase consisted of water:acetonitrile (9:1, v/v; mobile phase phase A) and acetonitrile:water (9:1, v/v; mobile phase B), which were modified with a total buffer concentration of 10 mM ammonium formate. The aqueous portion of each mobile phase was adjusted to pH 3.0 via addition of formic acid. The following gradient (8 min total run time including re-equilibration) was applied (time [min]/%B): 0/90, 3/85, 3.5/60, 4/60, 5/90, 8/90. Column temperature was maintained at 40 °C, the autosampler was set to 4 °C and sample injection volume was set to 3 µL. Analytes were recorded via a full scan with a mass resolving power of 120,000 over a mass range from 60 to 900 m/z (scan time: 100 ms, RF lens: 70%).
All experimental samples were measured in a randomized manner. Pooled quality control (QC) samples were prepared by mixing equal aliquots from each processed sample. Multiple QCs were injected at the beginning of the analysis in order to equilibrate the analytical system. A QC sample was analyzed after every 6th experimental sample to monitor instrument performance throughout the sequence. For determination of background signals and subsequent background subtraction, an additional processed blank sample was recorded. Data was processed using TraceFinder 5.1 and raw peak area data was exported for relative metabolite quantification.

[2] = clinical trial ID NCT01437787; cited from earlier work
hSLC19A3-wt = molecular target: T2, hSLC19A3-wt (Homo sapiens, UniProt Q9BZV2); experiment: nanoDSF thermal shift assay / apparent binding affinity, wildtype transporter
T2 construct: full-length, wildtype human SLC19A3; made in house; host or cells: Expi293F
T2 sequence (Q9BZV2 with tags, fused parts or gaps): as above

hSLC19A3 N297A = hSLC19A3 N297A (Homo sapiens, UniProt Q9BZV2, N297A); conditions: N297A mutant
hSLC19A3 N297A, sequence (Q9BZV2 with tags, fused parts or gaps N297A): as the sequence (Q9BZV2 with tags, fused parts or gaps) above, with N297A counted along it
Protocol: (§1) The thermal stability of the hSLC19A3 constructs and their binding affinities for small molecules were determined by nanoDSF, using a Prometheus NT.48 (NanoTemper Technologies). For sample preparation, the protein was diluted to a final concentration of 4 μM in SEC buffer and supplied with the respective compounds in a concentration range from 2 μM to 2 mM. Before measurement, the samples were incubated for 30 min at room temperature. Melting scans were performed at a temperature range from 20 to 95 °C with a temperature increment of 1 °C per minute. Thermal unfolding curves were recorded by measuring the ratio of the tryptophan-fluorescence at 350 nm (F350) and 330 nm (F330). The protein melting temperature (Tm) of a given sample was determined as the inflection point of the thermal unfolding curves, or the local maximum of its first derivative. The measured curves were analysed using the manufacturer’s software (PR.ThermControl, v 2.1.2, NanoTemper Technologies). Based on the determined Tm values, ligand induced thermal shifts (ΔTm) were determined as the difference between the melting temperature of the ligand-bound state (Tm) and the apo state (Tm^apo).
As R, Tstd and L are known and the ΔTm and Tm^apo are experimentally determined, non-linear curve fitting can be used to estimate Ea1 and Kd,app. […]

hSLC19A3 F56A = hSLC19A3 F56A (Homo sapiens, UniProt Q9BZV2, F56A); experiment: biochemical
hSLC19A3 F56A, sequence (Q9BZV2 with tags, fused parts or gaps F56A): as the sequence (Q9BZV2 with tags, fused parts or gaps) above, with F56A counted along it
Protocol: as §1
(§2) As R, Tstd and L are known and the ΔTm and Tm^apo are experimentally determined, non-linear curve fitting can be used to estimate Ea1 and Kd,app. The fitting was performed using symfit (v. 0.5.3), as described in Kotov et al., based on theoretical considerations formulated in Hall, 2019[56].

hSLC19A3 Q300A = hSLC19A3 Q300A (Homo sapiens, UniProt Q9BZV2, Q300A); experiment: biochemical
hSLC19A3 Q300A, sequence (Q9BZV2 with tags, fused parts or gaps Q300A): as the sequence (Q9BZV2 with tags, fused parts or gaps) above, with Q300A counted along it
Protocol: as §1, §2

hSLC19A3 Thr422Ala = hSLC19A3 Thr422Ala (Homo sapiens, UniProt Q9BZV2, T422A); experiment: biochemical
hSLC19A3 Thr422Ala, sequence (Q9BZV2 with tags, fused parts or gaps T422A): as the sequence (Q9BZV2 with tags, fused parts or gaps) above, with T422A counted along it
Protocol: as §1, §2

hSLC19A3 W59A = hSLC19A3 W59A (Homo sapiens, UniProt Q9BZV2, W59A); experiment: biochemical
hSLC19A3 W59A, sequence (Q9BZV2 with tags, fused parts or gaps W59A): as the sequence (Q9BZV2 with tags, fused parts or gaps) above, with W59A counted along it
Protocol: as §1, §2

hSLC19A3 Y113A = hSLC19A3 Y113A (Homo sapiens, UniProt Q9BZV2, Y113A); experiment: biochemical
hSLC19A3 Y113A, sequence (Q9BZV2 with tags, fused parts or gaps Y113A): as the sequence (Q9BZV2 with tags, fused parts or gaps) above, with Y113A counted along it
Protocol: as §1, §2

hSLC19A3 Y151A = hSLC19A3 Y151A (Homo sapiens, UniProt Q9BZV2, Y151A); experiment: biochemical
hSLC19A3 Y151A, sequence (Q9BZV2 with tags, fused parts or gaps Y151A): as the sequence (Q9BZV2 with tags, fused parts or gaps) above, with Y151A counted along it
Protocol: as §1, §2

hSLC19A3 Y151F = hSLC19A3 Y151F (Homo sapiens, UniProt Q9BZV2, Y151F); experiment: biochemical
hSLC19A3 Y151F, sequence (Q9BZV2 with tags, fused parts or gaps Y151F): as the sequence (Q9BZV2 with tags, fused parts or gaps) above, with Y151F counted along it
Protocol: as §1, §2

hSLC19A3-E110Q = hSLC19A3-E110Q (Homo sapiens, UniProt Q9BZV2, E110Q); experiment: biochemical; conditions: Kd,app for thiamine, E110Q mutant; n = 3
hSLC19A3-E110Q, sequence (Q9BZV2 with tags, fused parts or gaps E110Q): as the sequence (Q9BZV2 with tags, fused parts or gaps) above, with E110Q counted along it
Protocol: as §1, §2

hSLC19A3-Glu320Gln = hSLC19A3-Glu320Gln (Homo sapiens, UniProt Q9BZV2, E320Q); experiment: biochemical
hSLC19A3-Glu320Gln, sequence (Q9BZV2 with tags, fused parts or gaps E320Q): as the sequence (Q9BZV2 with tags, fused parts or gaps) above, with E320Q counted along it
Protocol: as §1, §2

hSLC19A3-Glu32Lys = hSLC19A3-Glu32Lys (Homo sapiens, UniProt Q9BZV2, E32K); experiment: biochemical; conditions: E32K mutant
hSLC19A3-Glu32Lys, sequence (Q9BZV2 with tags, fused parts or gaps E32K): as the sequence (Q9BZV2 with tags, fused parts or gaps) above, with E32K counted along it
Protocol: as §1, §2

hSLC19A3-Lys44Glu = hSLC19A3-Lys44Glu (Homo sapiens, UniProt Q9BZV2, K44E); experiment: biochemical
hSLC19A3-Lys44Glu, sequence (Q9BZV2 with tags, fused parts or gaps K44E): as the sequence (Q9BZV2 with tags, fused parts or gaps) above, with K44E counted along it
Protocol: as §1, §2

[3] = molecular target: hSLC19A3-gf (N45Q, N166Q) (Homo sapiens, UniProt Q9BZV2, N166Q/N45Q); experiment: biochemical
hSLC19A3-gf (N45Q, N166Q), sequence (Q9BZV2 with tags, fused parts or gaps N45Q/N166Q): as the sequence (Q9BZV2 with tags, fused parts or gaps) above, with N45Q, N166Q counted along it
Protocol: as §1, §2

MFSD1 = conditions: negative control; thiamine titration 1.95 μM to 2 mM
Protocol: as §1

SLC19A2 = conditions: read-out: Km (thiamine uptake); cited from earlier work
OCT1 (SLC22A1) = conditions: read-out: Km (thiamine uptake); cited from earlier work
[4] = molecular target: glycosylation-free mutant of hSLC19A3 (hSLC19A3-gf) (human, UniProt Q9BZV2 1-496, Asn45 mutated to glutamine | Asn166 mutated to glutamine); experiment: BLI
glycosylation-free mutant of hSLC19A3 (hSLC19A3-gf), sequence (Q9BZV2 other isoform, or with tags, fused parts or gaps with the stated changes): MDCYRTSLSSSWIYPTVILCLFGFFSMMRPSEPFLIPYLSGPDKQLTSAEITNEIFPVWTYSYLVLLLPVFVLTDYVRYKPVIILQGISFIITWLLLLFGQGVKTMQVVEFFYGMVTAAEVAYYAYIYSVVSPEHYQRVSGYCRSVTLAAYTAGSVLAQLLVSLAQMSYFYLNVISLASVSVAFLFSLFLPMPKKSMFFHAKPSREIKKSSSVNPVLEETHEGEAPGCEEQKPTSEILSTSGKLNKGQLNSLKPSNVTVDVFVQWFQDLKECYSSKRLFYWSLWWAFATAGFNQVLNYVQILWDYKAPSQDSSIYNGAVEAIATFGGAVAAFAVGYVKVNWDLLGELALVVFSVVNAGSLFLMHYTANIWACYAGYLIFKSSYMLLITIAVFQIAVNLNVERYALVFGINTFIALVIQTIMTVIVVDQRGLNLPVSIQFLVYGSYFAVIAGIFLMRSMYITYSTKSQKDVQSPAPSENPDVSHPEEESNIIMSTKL

For `COc1cc(Cc2cnc(N)nc2N)cc(OC)c1OC` [trimethoprim], the “substrate status at the transporter” value (SLC19A3) is listed as “xenobiotic substrates of the transporter”.

For `Cc1cnc(Nc2ccc(OCCN3CCCC3)cc2)nc1Nc1cccc(S(=O)(=O)NC(C)(C)C)c1` [fedratinib], the “inhibition of thiamine uptake through hSLC19A3, in words” value [1] is given as “strongly suppressed the thiamine transport activity of hSLC19A3”, the “substrate status at the transporter” value (SLC19A3) is given as “xenobiotic substrates of the transporter” and the “adverse event in patients” value [2] is given as “induced the development of Wernicke’s encephalopathy”.

In the case of `Cc1ncc(C[n+]2csc(CCO)c2C)c(N)n1` [thiamine], the Kd (hSLC19A3-wt; Kd,app (apparent dissociation constant), concentration-dependent thermal shifts, fitted for 25 °C, n = 3, mean ± s.d.) is reported as ~12 µM and 12.7 µM, the ΔTm at 2000 µM (hSLC19A3-wt; read-out: ΔTm (thermal stabilisation of hSLC19A3)) is reported as 10.9 ± 0.3 °C and the “thermal shift / interaction with hSLC19A3, in words” value (hSLC19A3-wt; thermal shift screen at 20 μM and 200 μM compound) is reported as “induces a strong stabilisation; also recorded: strong stabilisation of the transporter”. The “loss in binding affinity for thiamine versus wildtype” value (hSLC19A3 N297A) was ~ 250 fold, the Kd (hSLC19A3 F56A) was 4 ± 0.3 µM and the Kd (hSLC19A3 Q300A) was 5.6 ± 1.4 µM. For the same molecule, the Kd (hSLC19A3 Thr422Ala) was 172 ± 35 µM, the Kd (hSLC19A3 W59A) was 8.3 ± 1 µM and the “effect of mutation on thiamine binding, in words” value (hSLC19A3 W59A; W59A mutant (aromatic clamp)) was “did not impair thiamine binding”. For the same molecule, the Kd (hSLC19A3 Y113A) was 15.5 ± 2 µM, the “effect of mutation on thiamine binding, in words” value (hSLC19A3 Y113A; Y113A mutant (aromatic clamp)) was “did not impair thiamine binding” and the Kd (hSLC19A3 Y151A) was 17.8 ± 1.8 µM. The Kd (hSLC19A3 Y151F) was 18.7 ± 9.1 µM, the “effect of mutation on thiamine affinity, in words” value (hSLC19A3 Y151F; Y151F mutant) was “no strong effect on the affinity for thiamine was observed” and the Kd (hSLC19A3-E110Q) was 85 µM and 85.2 µM and ~85 µM. The Kd (hSLC19A3-Glu320Gln) was 284 ± 45 µM, the “decrease in affinity for thiamine versus wildtype” value (hSLC19A3-Glu320Gln; E320Q mutant) was 20 fold and the “drop in affinity for thiamine versus wildtype” value (hSLC19A3-Glu32Lys) was 10 fold and > 10 fold. The Kd (hSLC19A3-Glu32Lys; Kd,app for thiamine, n = 3) was 145 µM, the Kd (hSLC19A3-Lys44Glu) was 2.1 ± 0.1 µM and the “affinity for thiamine versus wildtype” value (hSLC19A3-Lys44Glu; K44E mutant) was “six-fold higher affinity”. The Kd [3] was 10.4 ± 0.9 µM, the “effect of the glycosylation-site mutations on thiamine binding, in words” value ([3]; thermal stability experiments) was “did not show any interference of these mutations with thiamine binding” and the “response to thiamine, in words” value (MFSD1) was “shows no response to thiamine”. For the same molecule, the Km (SLC19A3; read-out: Km (thiamine uptake)) was 2 to 7 µM, the Km (SLC19A2) was 2 to 7 µM and the Km (OCT1 (SLC22A1)) was roughly 780 µM.

B1: nanobody Nb3.7 (VHH)
VHH: QVQLVESGGGLVQPGDSLRLSCAASGRTFSINAMAWFRQAPGKEREYVAQISWTGGNTYYAESVKGRFTISRDNAKNTVYLQMISLKPEDTAVYYCAADSGGIRLGASRWNYWGQGTQVTVSS
In the case of B1, the Kd [4] is reported as 0.11 µM.

B2: nanobody Nb3.3 (VHH)
VHH: QVQLVESGGGLVQAGDSLRLSCAASGRTFSNYYMAWFRQAPGKEREFVAAIRLSYGSTYYADSVRGRFTISKDNAKNTVNLRMNSLKSEDTAIYYCAAAEDRWALAVRTATTYNYWGQGTQVTVSS
B2 gave a Kd [4] of 0.2 µM.
